Source: patent USRE39114E1, “Expression of sucrose phosphorylase in plants” (Monsanto Technology LLC, priority 1995, dated 2006)

How the values were obtained:
[1] = test system: OC[C@H]1O[C@@](CO)(O[C@H]2O[C@H](CO)[C@@H](O)[C@H](O)[C@H]2O)[C@@H](O)[C@@H]1O; assay: purified protein, by the assay type; conditions: other: 25° C., pH 7.0, S. mutans SP
Description: (§2) The assay reaction mixture (1 ml final volume) contained 50 mM Hepes-NaOH pH 7.0, 50 mM sucrose, 5 mM MgCl2, 1 mM NADP, 20 mM Kpi monobasic pH 7.0 (50 mM for GtfA), 8 IU phosphoglucomutase, 2 IU glucose-6-phosphate dehydrogenase and appropriate amounts of Spl or GtfA. Production of NADPH was monitored spectrophotometrically at 340 nm. One unit of Spl or GtfA activity was defined as the amount of the enzyme which caused the reduction of 1 μmol of NADP per minute under the above conditions. A control reaction in which inorganic phosphate was omitted from the reaction mixture was always conducted for each Spl or GtfA assay.

[2] = test system: sucrose phosphorylase (microbial); conditions: general statement, no method given; cited from earlier work
[3] = target: T1, Streptococcus mutans sucrose phosphorylase (GtfA, S. mutans SP), wild type, gene gtfA SEQ ID NO:5 (Streptococcus mutans serotype c, UniProt P10249); parameters: fragment containing the gtfA gene coding for the Streptococcus mutans sucrose phosphorylase, was cloned into the expression vector pET15b; made in house; host or cells: E. coli BL21 (DE3); conditions: compared with endogenous maize endosperm enzymes; in words; cited from earlier work
T1 sequence (P10249 whole entry, looked up, change not shown, the tested form may be a part): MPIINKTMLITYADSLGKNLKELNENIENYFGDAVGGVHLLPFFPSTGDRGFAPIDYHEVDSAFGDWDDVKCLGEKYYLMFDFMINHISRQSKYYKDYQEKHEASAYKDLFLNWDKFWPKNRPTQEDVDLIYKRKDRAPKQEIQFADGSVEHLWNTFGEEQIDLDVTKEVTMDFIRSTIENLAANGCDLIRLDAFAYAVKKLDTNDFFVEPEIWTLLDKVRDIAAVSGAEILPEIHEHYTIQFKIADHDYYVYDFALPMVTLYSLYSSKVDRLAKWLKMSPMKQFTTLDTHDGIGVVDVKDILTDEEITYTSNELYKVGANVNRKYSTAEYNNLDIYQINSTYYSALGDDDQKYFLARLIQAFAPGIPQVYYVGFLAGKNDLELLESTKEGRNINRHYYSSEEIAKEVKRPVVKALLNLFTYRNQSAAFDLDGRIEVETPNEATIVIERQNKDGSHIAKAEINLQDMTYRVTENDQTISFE

[4] = target: T1, Streptococcus mutans sucrose phosphorylase (GtfA, S. mutans SP), wild type, gene gtfA SEQ ID NO:5; conditions: ratio to L. mesenteroides enzyme
Description: as §2

[5] = target: T2, Leuconostoc mesenteroides sucrose phosphorylase (Spl, L. mesenteroides SP), wild type, gene spl SEQ ID NO:6 (Leuconostoc mesenteroides, UniProt Q59495); assay: Kinetic analysis of sucrose phosphorylase Spl (continuous coupled spectrophotometric assay); type: biochemical; conditions: 25° C., pH 7.0, read-out: Km(Pi)
T2 construct: fragment containing the spl gene, encoding the Leuconostoc mesenteroides sucrose phosphorylase enzyme; made in house; host or cells: E. coli BL21 (DE3)
T2 sequence (Q59495 1-490): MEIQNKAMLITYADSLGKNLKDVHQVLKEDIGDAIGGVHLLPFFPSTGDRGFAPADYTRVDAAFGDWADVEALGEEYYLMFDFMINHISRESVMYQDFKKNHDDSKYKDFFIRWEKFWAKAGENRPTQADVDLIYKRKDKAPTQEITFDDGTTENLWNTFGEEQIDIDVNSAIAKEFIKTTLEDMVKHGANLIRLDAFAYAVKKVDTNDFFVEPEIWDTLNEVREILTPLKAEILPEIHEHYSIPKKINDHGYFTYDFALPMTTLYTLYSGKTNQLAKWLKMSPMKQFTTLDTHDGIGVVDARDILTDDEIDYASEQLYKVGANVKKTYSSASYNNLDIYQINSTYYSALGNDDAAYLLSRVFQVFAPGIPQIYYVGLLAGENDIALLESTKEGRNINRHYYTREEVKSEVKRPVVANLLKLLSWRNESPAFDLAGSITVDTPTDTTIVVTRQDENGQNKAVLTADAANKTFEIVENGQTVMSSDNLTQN
Description: (§3) In order to evaluate the kinetic properties of two sucrose phosphorylase enzymes, the sucrose phosphorylase genes from Streptococcus mutans and Leuconostoc mesenteroides were separately cloned into pET15 expression vectors so that they could be overexpressed in E. coli.
(§4) For the purification of sucrose phosphorylase (Spl or GtfA), colonies of cells containing the correct plasmid construct were picked and used to grow liquid cultures (under Ampicillin selection), induced with IPTG (all purification steps were conducted at 4° C.). After growing an induced cell culture, the bacterial cell pellet was spun down and suspended in Buffer A (50 mM Tris-HCl, pH 7.5, 1 mM EDTA, 5% glycerol and 40 μl/ml protease inhibitor cocktail, purchased from Boehringer Mannheim Cat.#1-697-498)and cells were lysed using a French Press. The cell lysate was clarified by centrifugation at 15,000 rpm for 10 minutes. Ammonium sulfate was added to the supernatant to reach 30% saturation, and the resultant mixture was then applied onto a phenyl-Sepharose 4B column which was pre-equilibrated with Buffer B (10 mM Tris-HCl, pH 8.0, 1 mM DTT and 1 mM EDTA) plus 20% (w/v) ammonium sulfate. […] Combined proteins were concentrated by precipitation with 70% saturation of ammonium sulfate followed by resuspension of the protein pellet in a small volume (2 or 4 ml) of Buffer C (10 mM Tris-HCl, 1 mM EDTA and 10% Glycerol). The sample was dialyzed in 2 liters of Buffer C two to three times (about 2 h for each) to completely remove ammonium sulfate prior to further purification. The dialyzed sample was injected into a Mono Q column which was pre-equilibrated with Buffer C. The sucrose phosphorylase was eluted from the column with a linear gradient of NaCl from 0 to 0.4 M in Buffer C.

[6] = target: Leuconostoc mesenteroides sucrose phosphorylase (Spl), gene spl SEQ ID NO:6 (Leuconostoc mesenteroides, UniProt Q59495); conditions: 50 mM Pi, 100 mM sucrose, 35° C., pH 7.0
Description: (§1) To further characterize the sucrose phosphorylases from S. mutans and L. mesenteroides, plasmid constructs containing the spl or the gtfA genes were made for protoplast transformation. A 1461 bp NcoI/BamHI fragment, containing the gtfA gene was isolated by restriction digestion, gel purified, and ligated to a 4646 bp BamHI/NcoI vector fragment containing the enhanced 35S promoter (e35S; Kay et al., 1987), the HSP70 intron (U.S. Pat. No. 5,593,874), the Nopaline synthase 3′ region (Fraley et al., 1983), and a pUC vector derived backbone. A vector was thus created, containing the expression cassette [p-e35S/HSP70/gtfA/NOS3′]. After ligation, the plasmid constructs were transformed into competent DH5α cells, and the transformed cells were plated out on Ampicillin-containing medium. From the colonies that were formed, positive clones were identified by restriction digest. In a similar experiment a 1491bp NcoI/BamHI fragment, containing the spl gene, was isolated by restriction digestion, gel purified, and ligated to the same 4646bp BamHI/NcoI vector fragment (described above). After ligation, transformation of competent cells, and identification of positive clones, the resulting plasmid constructs were used for corn leaf protoplast transformation. Corn leaf protoplast transformation was performed essentially as described by Sheen J., 1991, with some modifications to the protocol.

[7] = target: Streptococcus mutans sucrose phosphorylase (GtfA), gene gtfA SEQ ID NO:5 (Streptococcus mutans serotype c, UniProt P10249); conditions: 50 mM Pi, 100 mM sucrose, 35° C., pH 7.0
Sequence of Streptococcus mutans sucrose phosphorylase (GtfA), gene gtfA SEQ ID NO:5 (P10249 whole entry, looked up, change not shown): as the sequence (P10249 whole entry, looked up, change not shown, the tested form may be a part) above
Description: as §1

[8] = substrate: OC[C@H]1O[C@@](CO)(O[C@H]2O[C@H](CO)[C@@H](O)[C@H](O)[C@H]2O)[C@@H](O)[C@@H]1O; assay: Kinetic analysis of sucrose phosphorylase Spl (continuous coupled spectrophotometric assay); type: biochemical, Leuconostoc mesenteroides; conditions: other: 25° C., pH 7.0, L. mesenteroides SP
Description: as §3, §4

Molecule: Streptococcus mutans sucrose phosphorylase (GtfA, S. mutans SP), wild type, gene gtfA SEQ ID NO:5 (Streptococcus mutans UA159)
- Km [1]: 0.33 mM
- Vmax [1]: 8.5 U/mg

Molecule: OC[C@H]1O[C@@](CO)(O[C@H]2O[C@H](CO)[C@@H](O)[C@H](O)[C@H]2O)[C@@H](O)[C@@H]1O [sucrose]
- Km [2]: 1 to 25 mM
- Km of GftA for sucrose relative to the endogenous enzymes [3]: lower Km
- Km(sucrose) of the S. mutans enzyme lower than that of the L. mesenteroides enzyme [4]: about 10 times lower
- Vmax of S. mutans sucrose phosphorylase lower than that of the enzyme from L. mesenteroides [4]: about 9 times lower

Molecule: O=P(O)(O)O [Pi, inorganic phosphate]
- Km [5]: 4.88 mM
- activity (% of optimal activity) [6]: about 80%
- activity (% of optimal activity) [7]: 100%

B1: Leuconostoc mesenteroides sucrose phosphorylase (Spl, L. mesenteroides SP), wild type, gene spl SEQ ID NO:6 (Leuconostoc mesenteroides) (protein)
chain: MEIQNKAMLITYADSLGKNLKDVHQVLKEDIGDAIGGVHLLPFFPSTGDRGFAPADYTRVDAAFGDWADVEALGEEYYLMFDFMINHISRESVMYQDFKKNHDDSKYKDFFIRWEKFWAKAGENRPTQADVDLIYKRKDKAPTQEITFDDGTTENLWNTFGEEQIDIDVNSAIAKEFIKTTLEDMVKHGANLIRLDAFAYAVKKVDTNDFFVEPEIWDTLNEVREILTPLKAEILPEIHEHYSIPKKINDHGYFTYDFALPMTTLYTLYSGKTNQLAKWLKMSPMKQFTTLDTHDGIGVVDARDILTDDEIDYASEQLYKVGANVKKTYSSASYNNLDIYQINSTYYSALGNDDAAYLLSRVFQVFAPGIPQIYYVGLLAGENDIALLESTKEGRNINRHYYTREEVKSEVKRPVVANLLKLLSWRNESPAFDLAGSITVDTPTDTTIVVTRQDENGQNKAVLTADAANKTFEIVENGQTVMSSDNLTQN
notes: fragment containing the spl gene, encoding the Leuconostoc mesenteroides sucrose phosphorylase enzyme; made in house; host or cells: E. coli BL21 (DE3)
- Km [8]: 3.39 mM
- Vmax [8]: 71.3 U/mg
